# Source: patent publication US8183292B2, “Chiral cyclic β-amino acids and their derivatives, pharmaceutical compositions containing them and the use of such compounds” (BioBlocks Magyarorszag Gyogyszerkemiai es Fejleszto Kft., priority 2006, dated 2012)
# Tests used:
# [1] = system: MRC-5 human fibroblast cell lines; assay: Cytotoxicity on MRC-5 human fibroblast cell lines (Alamar Blue/resazurine, 24 h); format: cell-based; conditions: MRC-5 cells, 24 hours incubation, 1% DMSO
# Method: The toxic effect of the compounds was measured on MRC-5 human fibroblast cell lines in accordance with the method that has been described in the article published by Molnár et al. [L. Molnár, G. M. Keserü, Á. Papp, Z. Lörincz, G. Ambrus és F. Darvas.: A neural network based classification scheme for cytotoxicity predictions: Validation on 30,000 compounds, Bioorg. Med. Chem. Lett. 16(4), 1037-9 (2006)]. The cells were incubated for a cell cycle (24 hours) with solutions of various concentrations prepared from the compounds, in the presence of 1% of DMSO. 3 parallel measurements were carried out with 6 different concentrations. The ratio of the viable cells was determined by reducing the Alamaar Blue (resazurine) reagent that was followed fluorimetrically. The measured materials were not toxic on the given cell line in a concentration of 128 μmol after incubation for one day.
# In the following Table 1 the cytotoxicity of some compounds according to the invention is given.
# P-glycoprotein = assay: Reversal of multidrug resistance: rhodamine 123 accumulation in human mdr1 transfected L5178 mouse T-cell lymphoma cells (flow cytometry); format: cell-based; conditions: for Multidrug resistance reversing effect (in words): 4 and 40 μg/mL, at higher concentration multiple of fluorescence activity of Verapamil; for Vrel = effect related to Verapamil: Verapamil at 10 μg/ml; for R = ratio of fluorescence and activity / R (activity ratio, fluorescence): rhodamine 123
# Method: L5178 mouse T-cell lymphoma cells were transfected with pHa MDR1/A retrovirus, by the method as described by J. L. Weaver [J. L. Weaver, G. Szabó, P. S. Pine, M. M. Gottesmann, S. Goldenberg and A. Aszalos: The effect of ion channel blockers, immunosuppressive agents and other drugs on the activity of the multidrug transporter. Int. […] Mdr-1-expressing cell lines were selected by culturing the transfected cells with 60 ng/mL of colchicine to maintain the expression of the MDR phenotype. L5178 (parent) mouse T-cell lymphoma cells and the human mdr1 transfected subline were cultured in McCoy's 5A medium supplemented with 10% by mass of heath-inactivated horce serum, L-glutamine and antibiotics. Both cell lines were cultured at 37° C. The mouse lymphoma cell line was maintained in a 5% CO2 atmosphere.
# The assays were carried out by the method as described by J. Molnár et al. [J. Molnár, I. Mucsi, J. Nacsa, A. Hevér, N. Gyémánt, K. Ugocsai, P. Hegyes, S. Kiessig, D. Gaal, H. Lage and A. Varga: New silicon compounds as resistance modifiers against multidrug-resistant cells. […] The cell density was set to a value of 2×10^6/mL, then the cells were resuspended in a serum-free McCoy's 5A medium and divided in aliquots of 0.5 mL in Eppendorf centrifuge tubes. The tested compounds were added in different concentrations to different volumes (2.0-20.0 μL) of 1.0-10.0 mg/mL stock solutions and the samples were incubated for 10 minutes at room temperature. […] The fluorescence of the cell population was measured with a Beckton Dickinson FACScan flow cytometer. […] The percentage value of the mean fluorescence intensity was calculated for the treated MDR and for the parental cell lines as compared with the values obtained with the untreated cells. The activity ratio (R) was calculated on the basis of the measured fluorescence values by the following equation: […]
compound,measurement,setting,value
"CCOC(=O)[C@@H]1C[C@H]2C[C@@H]([C@H]1NC(=O)Nc1ccc(Cl)cc1)C2(C)C [Compound 50, (1R,2R,3R,5R)-1-(3-Ethoxycarbonyl-6,6-Dimethylbicyclo[3.1.1]Heptan-2-yl)-3-(4-Chlorophenyl)-Urea]",Survival (%) [c = 128 μM],[1],167.6%
same,melting point,,167 to 169 °C
same,Multidrug resistance reversing effect (in words),P-glycoprotein,significant dose-dependent effect
same,Vrel = effect related to Verapamil,"P-glycoprotein; Table 3, 4 μg/ml",0.16
same,R = ratio of fluorescence and activity,"P-glycoprotein; Table 3, 4 μg/ml",1.87
same,Vrel = effect related to Verapamil,"P-glycoprotein; Table 3, 40 μg/ml",3.70
same,R = ratio of fluorescence and activity,"P-glycoprotein; Table 3, 40 μg/ml",42.58
"CCOC(=O)[C@@H]1C[C@H]2C[C@@H]([C@H]1NC(=S)Nc1cccc(OC)c1)C2(C)C [Compound 49, (1R,2R,3R,5R)-1-(3-Ethoxycarbonyl-6,6-Dimethylbicyclo[3.1.1]Heptan-2-yl)-3-(3-Methoxyphenyl)-Thiourea]",Survival (%) [c = 128 μM],[1],250.9%
same,melting point,,118 to 120 °C
same,Multidrug resistance reversing effect (in words),P-glycoprotein,significant dose-dependent effect
same,Vrel = effect related to Verapamil,"P-glycoprotein; Table 2, 4 μg/ml",0.56
same,"R (activity ratio, fluorescence)","P-glycoprotein; Table 2, 4 μg/ml",2.77
same,Vrel = effect related to Verapamil,"P-glycoprotein; Table 2, 40 μg/ml",5.71
same,"R (activity ratio, fluorescence)","P-glycoprotein; Table 2, 40 μg/ml",28.07
"CC1(C)[C@H]2C[C@@H]3C(=O)N[C@@H]3[C@@H]1C2 [Compound 10, (1R,2R,5S,7R)-8,8-Dimethyl-3-Azatricyclo[5.1.1.0^2,5]Nonan-4-One]",melting point,,68 to 72 °C
"CC(C)(C)OC(=O)N1C(=O)[C@H]2C[C@H]3C[C@@H]([C@H]21)C3(C)C [Compound 11, (1R ,2R,5S,7R)-N-tert-Butoxycarbonyl-8,8-Dimethyl-3-Azatricyclo[5.1.1.0^2,5]-Nonan-4-One]",melting point,,64 to 66 °C
CCOC(=O)[C@H](Cc1ccccc1)NC(=O)[C@@H]1C[C@@H]2C[C@H]([C@@H]1NC(=O)OC(C)(C)C)C2(C)C [Compound 38],Survival (%) [c = 128 μM],[1],125.3%
same,Vrel = effect related to Verapamil,"P-glycoprotein; Table 2, 4 μg/ml",0.79
same,"R (activity ratio, fluorescence)","P-glycoprotein; Table 2, 4 μg/ml",2.33
same,Vrel = effect related to Verapamil,"P-glycoprotein; Table 2, 40 μg/ml",6.73
same,"R (activity ratio, fluorescence)","P-glycoprotein; Table 2, 40 μg/ml",19.92
"CC1(C)[C@H]2C[C@H](C(=O)O)[C@H](N)[C@@H]1C2 [Compound 13, (1R,2R,3S,5R)-2-Amino-6,6-Dimethylbicyclo[3.1.1]Heptan-3-Carboxylic Acid]",melting point,,270 °C
"CCOC(=O)[C@H]1C[C@H]2C[C@@H]([C@H]1N(Cc1ccccc1)C(=O)Nc1ccc(Cl)cc1)C2(C)C [Compound 48, (1R,2R,3S,5R)-1-Benzyl-1-(3-Ethoxycarbonyl-6,6-Dimethylbicyclo[3.1.1]Heptan-2-yl)-3-(4-Chlorophenyl)-Urea]",melting point,,202 to 205 °C
"CC1(C)[C@H]2C[C@@H](C(=O)O)[C@H](N)[C@@H]1C2 [Compound 29, (1R,2R,3R,5R)-2-Amino-6,6-Dimethylbicyclo[3.1.1]Heptan-3-Carboxylic Acid]",melting point,,250 to 252 °C
"CC1(C)[C@@H]2C[C@H](C(=O)O)[C@@H](NC(=O)OCC3c4ccccc4-c4ccccc43)[C@H]1C2 [Compound 41, (1S,2S,3S,5S)-2-(9H-Fluoren-9-yl-Methoxycarbonylamino)-6,6-Dimethylbicyclo[3.1.1]Heptan-3-Carboxylic Acid]",Vrel = effect related to Verapamil,"P-glycoprotein; Table 3, 4 μg/ml",0.07
same,R = ratio of fluorescence and activity,"P-glycoprotein; Table 3, 4 μg/ml",0.86
same,Vrel = effect related to Verapamil,"P-glycoprotein; Table 3, 40 μg/ml",0.11
same,R = ratio of fluorescence and activity,"P-glycoprotein; Table 3, 40 μg/ml",1.25
"CCOC(=O)[C@@H]1C[C@H]2C[C@@H]([C@H]1NC(=S)NCCc1ccc(OC)c(OC)c1)C2(C)C [Compound 51, (1R,2R,3R,5R)-1-(3-Ethoxycarbonyl-6,6-Dimethylbicyclo[3.1.1]Heptan-2-yl)-3-(3,4-Dimethoxyphenyl-Ethyl)-Thiourea]",Multidrug resistance reversing effect (in words),P-glycoprotein,significant dose-dependent effect
same,Vrel = effect related to Verapamil,"P-glycoprotein; Table 2, 4 μg/ml",2.70
same,"R (activity ratio, fluorescence)","P-glycoprotein; Table 2, 4 μg/ml",13.29
same,Vrel = effect related to Verapamil,"P-glycoprotein; Table 2, 40 μg/ml",9.96
same,"R (activity ratio, fluorescence)","P-glycoprotein; Table 2, 40 μg/ml",49.02
"CCOC(=O)[C@H]1C[C@@H]2C[C@H]([C@@H]1NC(=O)Nc1ccc(Cl)cc1)C2(C)C [Compound 56, (1S,2S,3S,5S)-1-(3-Ethoxycarbonyl-6,6-Dimethylbicyclo[3.1.1]Heptan-2-yl)-3-(4-Chlorophenyl)-Urea]",Survival (%) [c = 128 μM],[1],116.8%
same,Multidrug resistance reversing effect (in words),P-glycoprotein,significant dose-dependent effect
same,Vrel = effect related to Verapamil,"P-glycoprotein; Table 3, 4 μg/ml",0.14
same,R = ratio of fluorescence and activity,"P-glycoprotein; Table 3, 4 μg/ml",1.57
same,Vrel = effect related to Verapamil,"P-glycoprotein; Table 3, 40 μg/ml",3.43
same,R = ratio of fluorescence and activity,"P-glycoprotein; Table 3, 40 μg/ml",39.39
"COC(=O)N(C1c2ccccc2-c2ccccc21)[C@H]1[C@@H](C(=O)O)C[C@H]2C[C@@H]1C2(C)C [Compound 18, (1R,2R,3S,5R)-2-(9H-Fluoren-9-yl-Methoxycarbonylamino)-6,6-Dimethylbicyclo[3.1.1]Heptan-3-Carboxylic Acid]",melting point,,160 to 162 °C
"CCOC(=O)[C@H]1C[C@@H]2C[C@H]([C@@H]1NC(=S)Nc1cccc(OC)c1)C2(C)C [Compound 55, (1S,2S,3S,5S)-1-(3-Ethoxycarbonyl-6,6-Dimethylbicyclo[3.1.1]Heptan-2-yl)-3-(3-Methoxyphenyl)-Thiourea]",Survival (%) [c = 128 μM],[1],214.1%
same,Vrel = effect related to Verapamil,"P-glycoprotein; Table 2, 4 μg/ml",0.62
same,"R (activity ratio, fluorescence)","P-glycoprotein; Table 2, 4 μg/ml",3.07
same,Vrel = effect related to Verapamil,"P-glycoprotein; Table 2, 40 μg/ml",2.44
same,"R (activity ratio, fluorescence)","P-glycoprotein; Table 2, 40 μg/ml",11.99
"CCOC(=O)[C@@H]1C[C@@H]2C[C@H]([C@@H]1NC(=S)Nc1cccc(OC)c1)C2(C)C [Compound 54, (1S,2S,3R,5S)-1-(3-Ethoxycarbonyl-6,6-Dimethylbicyclo[3.1.1]Heptan-2-yl) -3-(3-Methoxyphenyl)-Thiourea]",Vrel = effect related to Verapamil,"P-glycoprotein; Table 2, 4 μg/ml",0.48
same,"R (activity ratio, fluorescence)","P-glycoprotein; Table 2, 4 μg/ml",2.37
same,Vrel = effect related to Verapamil,"P-glycoprotein; Table 2, 40 μg/ml",5.36
same,"R (activity ratio, fluorescence)","P-glycoprotein; Table 2, 40 μg/ml",26.35
CCOC(=O)[C@H](Cc1ccccc1)NC(=O)[C@H]1C[C@H]2C[C@@H]([C@H]1NC(=O)OC(C)(C)C)C2(C)C [Compound 17],Vrel = effect related to Verapamil,"P-glycoprotein; Table 3, 4 μg/ml",1.58
same,R = ratio of fluorescence and activity,"P-glycoprotein; Table 3, 4 μg/ml",23.1
same,Vrel = effect related to Verapamil,"P-glycoprotein; Table 3, 40 μg/ml",6.45
same,R = ratio of fluorescence and activity,"P-glycoprotein; Table 3, 40 μg/ml",94.24
"COC(=O)N(C1c2ccccc2-c2ccccc21)[C@H]1[C@H](C(=O)O)C[C@H]2C[C@@H]1C2(C)C [Compound 30, (1R,2R,3R,5R)-2-(9H-Fluoren-9-yl-Methoxycarbonylamino)-6,6-Dimethylbicyclo[3.1.1]Heptan-3-Carboxylic Acid]",melting point,,155 to 157 °C
"CNC(=O)[C@H]1[C@@H](NC(=O)OC(C)(C)C)C[C@H]2C[C@H]1C2(C)C [Compound 12, tert-Butyl (1R,2R,3S,5R)-(2-Methylaminocarbonyl-6,6-Dimethylbicyclo[3.1.1]-Hept-3-yl)Carbamate]",melting point,,104 to 105 °C
